Experimental data published in patent US20180236109A1, “Pain Tracking by PET-imaging (Pain-TraP)” (Universitat zu Koln, priority 2015, published 2018).

Key:
PSMA [1] = target: T1, PSMA (Mus musculus, UniProt O35409); assay: micro-PET tracer uptake in sciatic nerve lesion (SNI) model of neuropathic pain; type: in vivo, mice
T1 construct: from tissue; host or cells: C57BL/6 mouse, in vivo (hindpaw, thigh/sciatic nerve lesion site, sciatic nerve plexus)
Description: (§1) Experiments were performed in male 6- to 12-week-old C57BL/6 mice. Animals were housed on a 12/12 light/dark cycle with access to food and water ad libitum. All experiments adhered to the guidelines of the International Association for the Study of Pain and to the ARRIVE guidelines, and were approved by our local Ethics Committee for Animal Research.
Under isoflurane anesthesia, the tibial and common peroneal branches of the sciatic nerve were ligated and sectioned distally, while the sural nerve was left intact (Decosterd and Woolf, 2000); (Bourquin et al., 2006). Mechanical hypersensitivity at the lateral surface of the hindpaw (sural nerve skin area) was determined using a Dynamic Plantar Aesthesiometer as described above.
(§2) The animals were allowed to wake up in their home cage, where they remained for 50 min. Subsequently, mice were reanesthetized, killed to reduce the time of procedures on the living animal, and placed on a two-animal holder (Medres®). PET scans in list mode were performed using a Focus 220 micro PET scanner (CTI-Siemens®) with a resolution at center of field of view of 1.4 mm. Data acquisition started exactly one hour after [^18F]DCFPyL-injection and lasted […]. It was followed by a transmission scan using a ^57Co-point source for attenuation correction. Following Fourier rebinning, data were reconstructed using the iterative OSEM3D/MAP procedure (Qi et al., 1998) resulting in voxel sizes of 0.38×0.38×0.80 mm.
(§3) Four individual volumes of interest (VOIs, 24 mm^3 each) were drawn, two of which were placed over the left and right sciatic nerve plexus. The other two were positioned either over the sciatic nerve lesion in the thigh and the undamaged contra-lesional thigh (in case of SNI model), or over the hindpaws (in case of CFA model). […] The ratio of ipsi- and contralateral VOIs was calculated.
For each measurement a separate set of animals was used. […] To simplify the measurement methodology, animals were sacrificed instead of anaesthesized after 1 h and measured in a pPET. Images were analyzed for the section of maximal intensity at the site of injection, the respective areas quantified, and the ratio between ipsi- and contralateral side was calculated.
(§4) In the inflammatory pain model, “Complete Freunds Adjuvant (CFA)” was injected in the left hind paw, which leads to long-lasting inflammation and pain. To induce neuropathic pain in the “Spared nerve injury (SNI) model”, two branches of the sciatic nerve were ligated, while the third branch (the sural nerve) was left intact. In both models, pain sensitivity was measured using the Dynamic Plantar Test at the day before the PET scan. A movable force actuator was positioned below the plantar surface of the animal. A thin (0.5 mm) filament exerted increasing force, until the animal twitched its paw. The time it takes for the animal to retract its paw inversely reflects touch sensitivity.
(§5) On the next day, the PSMA tracer [^18F]DCFPyL was intravenously injected. After an uptake period of 60 min, an emission scan was performed for 30 min.

PSMA [2] = target: T1, PSMA; assay: micro-PET tracer uptake in Complete-Freund's-Adjuvant (CFA) model of inflammatory pain; type: in vivo, mice
Description: as §1
The mechanical sensitivity of the plantar side of a hindpaw was assessed with an automated testing device (dynamic plantar aesthesiometer; Ugo Basile). This device pushes a thin probe (0.5 mm diameter) with increasing force through a wire-grated floor against the plantar surface of the paw from beneath, and it automatically stops and records the latency time after which the animal withdraws the paw. The force increased from 0 to 5 g within 10 s (0.5 g/s ramp) and was then held at 5 g for an additional 10 s (Schmidtko et al., 2008a). The paw withdrawal latency was taken to be the mean of three consecutive trials with at least 10 s in between. After baseline measurements, 20 al of complete Freund's adjuvant (CFA; containing 1 mg/ml heat-killed Mycobacterium tuberculosis in paraffin oil 85% and mannide monooleate 15%; Sigma-Aldrich) was injected into the plantar subcutaneous space of a hindpaw, and paw withdrawal latencies were determined at the indicated timepoints after CFA injection (Schmidtko et al., 2008b).
as §2, §3
Each measurement was taken on a separate set of animals. […] To simplify the measurement methodology, animals were sacrificed instead of anaesthesized after 1 h and measured in a iPET. Images were analyzed for the section of maximal intensity at the site of injection, the respective areas quantified, and the ratio between ipsi- and contralateral side calculated.
as §4, §5

[3] = 10 MBq into tail vein, PET after 1 h
[4] = site of lesion, ipsi-/contralateral ratios, individual animals

T1 sequence (O35409 whole entry): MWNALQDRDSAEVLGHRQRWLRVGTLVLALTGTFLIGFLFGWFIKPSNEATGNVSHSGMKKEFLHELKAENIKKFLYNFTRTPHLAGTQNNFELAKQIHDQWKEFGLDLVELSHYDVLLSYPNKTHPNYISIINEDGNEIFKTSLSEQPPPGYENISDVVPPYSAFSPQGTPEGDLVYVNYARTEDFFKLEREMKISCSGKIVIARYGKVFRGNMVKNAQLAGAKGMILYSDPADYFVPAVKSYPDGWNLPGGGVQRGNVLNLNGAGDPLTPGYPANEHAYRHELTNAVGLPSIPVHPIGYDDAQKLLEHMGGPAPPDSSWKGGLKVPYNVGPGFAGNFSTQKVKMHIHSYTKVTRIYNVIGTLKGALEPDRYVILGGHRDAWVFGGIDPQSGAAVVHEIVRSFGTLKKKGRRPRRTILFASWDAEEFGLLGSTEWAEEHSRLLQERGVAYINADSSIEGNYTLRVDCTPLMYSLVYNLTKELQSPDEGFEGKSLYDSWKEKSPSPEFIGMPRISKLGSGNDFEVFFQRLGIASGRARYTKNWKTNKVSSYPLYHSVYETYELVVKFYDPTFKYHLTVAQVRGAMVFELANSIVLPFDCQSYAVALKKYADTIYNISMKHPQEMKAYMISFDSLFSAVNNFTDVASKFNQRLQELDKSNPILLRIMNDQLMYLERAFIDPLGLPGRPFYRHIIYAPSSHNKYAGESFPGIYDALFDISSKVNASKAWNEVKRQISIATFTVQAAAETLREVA

tracer uptake at the lesion site (PSMA [1]; 3, 7, and 14 days after surgery, FIG. 11B): significantly increased
tracer uptake at the contralateral side (PSMA [1]; [3]): little to no
tracer uptake in sham treated animals (PSMA [1]; [3]): little
quantification of the uptake, increase over sham-operated controls (PSMA [1]; average, FIG. 6): 2-3 fold
correlation of tracer uptake with pain sensitivity (PSMA [1]; [4]): significantly correlated
tracer uptake at the lesion site (PSMA [2]; 2, 7, and 14 days after CFA injection, FIG. 12B): significantly increased
tracer uptake at the contralateral side (PSMA [2]; 10 MBq into tail vein, PET after 1 h, contralateral paw): little to no
tracer uptake at the site of CFA injection (PSMA [2]; 10 MBq into tail vein, PET after 1 h, injected hindpaw): high
enrichment at the side of CFA injection, increase over the contra-lateral side (PSMA [2]; FIG. 3): ~2 fold
quantification of the uptake, increase over controls (PSMA [2]; average, ratio ipsi-/contralateral, FIG. 3): 2 fold
correlation of tracer uptake with pain sensitivity (PSMA [2]; [4]): significantly correlated
Structure (SMILES): O=C(O)CCC(NC(=O)NC(CCCCNC(=O)c1ccc([18F])nc1)C(=O)O)C(=O)O (stereo not shown) [[^18F]DCFPyL, 2-(3-{1-Carboxy-5-[(6-[18F]fluoro-pyridine-3-carbonyl)-amino]-pentyl}-ureido)-pen tanedioic acid]
tracer uptake at the site of injury (PSMA [1]; 10 MBq into tail vein, PET after 1 h, sciatic nerve lesion): high and strong enrichment
tracer enrichment along the nerve plexus (PSMA [1]; neuropathic pain animals): enrichment along the nerve toward the spinal cord
